In US11629171B2, “Beta-hairpin peptidomimetics” (POLYPHOR AG, priority 2017, dated 2023):
Values after ≈ are worked out from the molar mass of the structure shown. Where a SMILES comes first, the peptide text is derived from it. Bridges are numbered along the chain shown (N, C = ends). Roman numbers before positions name the chains, in order. [ ]: non-standard residue; d: D form. NMeV = CN[C@H](C(=O)O)C(C)C; dDab = NCC[C@@H](N)C(=O)O; hSer = N[C@@H](CCO)C(=O)O; Dab = NCC[C@H](N)C(=O)O; Dap = NC[C@H](N)C(=O)O

Legend:
[1] = system: Acinetobacter baumannii 872842; assay type: cell-based; conditions: 872842
Procedure, shortened: (§1)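 Standard CLSI microdilution testing: bacterial suspensions standardized against 0.5 McFarland to about 10^6 CFU/mL in MH-II broth meet serially halved peptide concentrations in broth containing 0.002% polysorbate 80; incubation lasts 18-20 h at 35° C before the MIC is scored.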

[2] = system: Acinetobacter baumannii DSM 30008; assay type: cell-based; conditions: DSM 30008
Procedure, shortened: as §1

[3] = system: Enterobacter cloacae 848840; assay type: cell-based; conditions: 848840
Procedure, shortened: as §1

Escherichia coli 926415 = assay type: cell-based; conditions: 926415
Procedure, shortened: as §1

[4] = system: Escherichia coli ATCC 25922; assay type: cell-based; conditions: ATCC 25922
Procedure, shortened: as §1

[5] = system: Klebsiella pneumoniae 968733; assay type: cell-based; conditions: 968733
Procedure, shortened: as §1

[6] = system: Klebsiella pneumoniae SSI #3010; assay type: cell-based; conditions: SSI #3010
Procedure, shortened: as §1

[7] = system: Pseudomonas aeruginosa ATCC 27853; assay type: cell-based; conditions: ATCC 27853
Procedure, shortened: as §1

[8] = system: human red blood cells (hRBC); assay: Hemolysis; assay type: cell-based; conditions: red cells of human, 1 h, 200
Procedure, shortened: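 Washed fresh human RBC (20% v/v) incubated with peptide at 200 μg/mL for 1 h at 37° C with shaking. Supernatant OD540 measured after dilution, blank corrected; percent hemolysis = OD540 peptide / OD540 of 2% Triton X-100 lysis × 100, PBS with 10% water as 0%.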

male ICR mice = assay: Tolerability in a mouse model (Maximum Tolerated Dose assay); assay type: in vivo; conditions: groups of 3
Procedure, shortened: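 Peptides in 0.9% NaCl (pH 6.5-7.6) given s.c. at 30 or 40 mg/kg, twice 12 h apart, to groups of 3 male ICR mice (23±3 g). Acute toxic signs (mortality, convulsions, tremors, sedation) and autonomic effects (diarrhea, salivation, piloerection) observed for 30 min after each dose.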

[9] = 2 × 30 mg/kg s.c. at a 12-hr interval
[10] = 2 × 40 mg/kg s.c. at a 12-hr interval

Row | SMILES | MIC [1] [µg/mL] | MIC [2] [µg/mL] | MIC [3] [µg/mL] | MIC (Escherichia coli 926415) [µg/mL] | MIC [4] [µg/mL] | MIC [5] [µg/mL] | MIC [6] [µg/mL] | MIC [7] [µg/mL] | Hemolysis at 200 μg/mL [8] [%] | Mortality and dose (male ICR mice; [9]) | Acinetobacter baumannii DSM 30008 MIC [2] [µg/mL] | Escherichia coli ATCC 25922 MIC [4] [µg/mL] | Klebsiella pneumoniae SSI #3010 MIC [6] [µg/mL] | Pseudomonas aeruginosa ATCC 27853 MIC [7] [µg/mL] | Mortality and dose (male ICR mice; [10])
1 | CC(=O)N[C@H](C(=O)N[C@H]1CSSC[C@@H](C(=O)N[C@@H](Cc2ccc(O)cc2)C(N)=O)NC(=O)[C@H](C(C)C)NC(=O)[C@H](CO)NC(=O)[C@H](Cc2c[nH]c3ccccc23)NC(=O)[C@H](CCO)NC(=O)[C@@H](CCN)NC(=O)[C@H](CCC(=O)N[C@@H](CCN)C(=O)N[C@H](C(=O)N[C@@H](CCN)C(=O)N[C@H]2CCNC(=O)[C@H]([C@@H](C)O)NC(=O)[C@H](CCN)NC(=O)[C@H](CCN)NC(=O)[C@H](CC(C)C)NC(=O)[C@@H](CC(C)C)NC(=O)[C@H](CCN)NC2=O)[C@@H](C)O)NC(=O)[C@H](CCN)NC(=O)[C@H](CO)NC1=O)C(C)C [Ex. 65] (I: Ac-VCS[Dab]E[dDab][hSer]WSVCY-NH2 / II: [Dab]T[Dab][Dab][Dab][dL]L[Dab][Dab]T; disulfide I:2-I:11; amide I:5-II:N; lactam II:4-II:C) | 0.25 (≈ 0.103 µM) | 0.125 (≈ 0.0515 µM) | 4 (≈ 1.65 µM) | 0.5 (≈ 0.206 µM) | 0.125 (≈ 0.0515 µM) | 0.5 (≈ 0.206 µM) | 0.25 (≈ 0.103 µM) | 0.125 (≈ 0.0515 µM) | <1 | 0/3 died at 2 × 30 mg/kg | – | – | – | – | –
2 | CC(=O)N[C@H](C(=O)N[C@H]1CSSC[C@@H](C(=O)N[C@@H](CO)C(N)=O)NC(=O)[C@H](C(C)C)NC(=O)[C@H](CO)NC(=O)[C@H](Cc2c[nH]c3ccccc23)NC(=O)[C@H](CCC(=O)N[C@@H](CCN)C(=O)N[C@H](C(=O)N[C@@H](CN)C(=O)N[C@H]2CCNC(=O)[C@H]([C@@H](C)O)NC(=O)[C@H](CCN)NC(=O)[C@H](CCN)NC(=O)[C@H](CC(C)C)NC(=O)[C@@H](CC(C)C)NC(=O)[C@H](CCN)NC2=O)[C@@H](C)O)NC(=O)[C@@H](CCN)NC(=O)[C@H](Cc2c[nH]cn2)NC(=O)[C@H](CCN)NC(=O)[C@H](Cc2ccc(O)cc2)NC1=O)C(C)C [Ex. 365] (I: Ac-VCY[Dab]H[dDab]EWSVCS-NH2 / II: [Dab]T[Dap][Dab][Dab][dL]L[Dab][Dab]T; disulfide I:2-I:11; amide I:7-II:N; lactam II:4-II:C) | 0.0625 (≈ 0.0255 µM) | – | 0.0625 (≈ 0.0255 µM) | 0.125 (≈ 0.051 µM) | – | 0.125 (≈ 0.051 µM) | – | – | <1 | – | 0.0625 | 0.03125 | 0.0625 | 0.125 | 0/3 died at 2 × 40 mg/kg
3 | CC(=O)N[C@H](C(=O)N[C@H]1CSSC[C@@H](C(=O)N[C@@H](CO)C(N)=O)NC(=O)[C@H](C(C)C)NC(=O)[C@H](CO)NC(=O)[C@H](Cc2c[nH]c3ccccc23)NC(=O)[C@H](CO)NC(=O)[C@@H](CCN)NC(=O)[C@H](CCC(=O)N[C@@H](CCN)C(=O)N[C@H](C(=O)N[C@@H](CCN)C(=O)N[C@H]2CCNC(=O)[C@H]([C@@H](C)O)NC(=O)[C@H](CCN)NC(=O)[C@H](CCN)NC(=O)[C@H]([C@@H](C)O)NC(=O)[C@@H](CC(C)C)NC(=O)[C@H](CCN)NC2=O)[C@@H](C)O)NC(=O)[C@H](CCN)NC(=O)[C@H](Cc2ccc(O)cc2)NC1=O)C(C)C [Ex. 333] (I: Ac-VCY[Dab]E[dDab]SWSVCS-NH2 / II: [Dab]T[Dab][Dab][Dab][dL]T[Dab][Dab]T; disulfide I:2-I:11; amide I:5-II:N; lactam II:4-II:C) | 0.5 (≈ 0.208 µM) | – | 0.25 (≈ 0.104 µM) | 0.5 (≈ 0.208 µM) | – | 1 (≈ 0.417 µM) | – | – | 2 | – | 0.125 | 0.0625 | 0.0625 | 0.25 | 0/3 died at 2 × 40 mg/kg
4 | CN[C@H](C(=O)N[C@H]1CSSC[C@@H](C(=O)N[C@@H](CO)C(=O)O)NC(=O)[C@H](C(C)C)NC(=O)[C@H](CO)NC(=O)[C@H](Cc2c[nH]c3ccccc23)NC(=O)[C@H](CCO)NC(=O)[C@@H](CCN)NC(=O)[C@H](CCC(=O)N[C@@H](CCN)C(=O)N[C@H](C(=O)N[C@@H](CCN)C(=O)N[C@H]2CCNC(=O)[C@H]([C@@H](C)O)NC(=O)[C@H](CCN)NC(=O)[C@H](CCN)NC(=O)[C@H](CC(C)C)NC(=O)[C@@H](CC(C)C)NC(=O)[C@H](CCN)NC2=O)[C@@H](C)O)NC(=O)[C@H](CCN)NC(=O)[C@H](Cc2ccc(O)cc2)NC1=O)C(C)C [Ex. 42] (I: H-[NMeV]CY[Dab]E[dDab][hSer]WSVCS-OH / II: [Dab]T[Dab][Dab][Dab][dL]L[Dab][Dab]T; disulfide I:2-I:11; amide I:5-II:N; lactam II:4-II:C; C-terminus assumed) | 1 (≈ 0.417 µM) | 0.5 (≈ 0.208 µM) | 4 (≈ 1.67 µM) | 0.5 (≈ 0.208 µM) | 0.125 (≈ 0.0521 µM) | 2 (≈ 0.833 µM) | 0.25 (≈ 0.104 µM) | 0.25 (≈ 0.104 µM) | <1 | 0/3 died at 2 × 30 mg/kg | – | – | – | – | –
